{
  "source": "paper PMC12383718",
  "about": "“C-Terminal Modification Contributes the Antibacterial Activity of a Cecropin-like Region of Heteroscorpine-1 from Scorpion Venom” (Biology, 2025)",
  "key": {"[1]": {"test_system": "Klebsiella pneumoniae ATCC 27736", "test": "microbe, parasite or virus in culture", "assay_type": "cell-based", "details": "K. pneumoniae ATCC 27736, 37 °C, 16–18 h, ND = no detection at the highest tested concentration", "procedure": "(§1) The following microorganisms were used to determine the minimum inhibitory concentration (MIC) and minimum bactericidal concentration (MBC) of the peptides: Gram-positive Staphylococcus aureus ATCC 25923, Gram-negative Escherichia coli ATCC 25922, Klebsiella pneumoniae ATCC 27736, and Pseudomonas aeruginosa ATCC 27853. The assays were conducted according to the protocol described by Erviana et al., with some modifications.\n(§2) The antibacterial activity of the modified CeHS-1 analogs was evaluated using MIC and MBC assays. The MIC (minimum inhibitory concentration) is defined as the lowest concentration of antimicrobial peptides (AMPs) or other agents that inhibits visible bacterial growth. In contrast, the MBC (minimum bactericidal concentration) is defined as the lowest concentration of AMPs that kills 99.9% of the bacterial inoculum under the specified conditions. The determination of MIC values was performed using a 96-well plate assay. Initially, peptides were serially diluted in the wells. Then, 10 µL of bacterial inoculum, previously adjusted to a cell density of 2.2 × 10^6 CFU/mL, was added to each well. The plates were incubated at 37 °C for 16–18 h. The MIC was determined by measuring the optical density at 600 nm (OD600), with the lowest concentration of AMPs that inhibited visible bacterial growth defined as the MIC. […] The lowest concentration of AMPs at which no bacterial colonies were observed was defined as the MBC [47]."}, "[2]": {"test_system": "Pseudomonas aeruginosa ATCC 27853", "test": "microbe, parasite or virus in culture", "assay_type": "cell-based", "details": "P. aeruginosa ATCC 27853, 37 °C, 16–18 h, ND = no detection at the highest tested concentration", "procedure": "as §1, §2"}, "[3]": {"test_system": "Staphylococcus aureus ATCC 25923", "test": "microbe, parasite or virus in culture", "assay_type": "cell-based", "details": "S. aureus ATCC 25923, 37 °C, 16–18 h, ND = no detection at the highest tested concentration", "procedure": "as §1, §2"}, "[4]": {"test_system": "Escherichia coli ATCC 25922", "test": "microbe, parasite or virus in culture", "assay_type": "cell-based", "details": "E. coli ATCC 25922, 37 °C, 16–18 h, ND = no detection at the highest tested concentration", "procedure": "as §1, §2"}, "[5]": {"test_system": "human red blood cells (hRBCs)", "test": "Hemolytic activity assay", "assay_type": "cell-based", "details": "500 µg/mL peptide (highest concentration tested); 4% hRBC suspension in PBS pH 7.4, 37 °C, 1 h, absorbance 415 nm; relative to 0.1% Triton X-100", "procedure": "The hemolytic activity of the peptides was assessed using human red blood cells (hRBCs), following the method described by Erviana et al., with some modifications. Briefly, a 4% hRBC suspension was prepared in 1X phosphate-buffered saline (PBS, pH 7.4). Subsequently, 100 µL of the hRBC suspension was mixed with 100 µL of peptide samples at various concentrations (500, 200, 100, 50, and 25 µg/mL) in microcentrifuge tubes. The mixture was incubated at 37 °C for 1 h, followed by centrifugation at 100× g for 5 min. The supernatant was collected and transferred to a 96-well plate for absorbance measurement at 415 nm. The hemolytic activity of each peptide was subsequently calculated using the following equation: Hemolysis (%)=S/P×100\nIn the above equation, S represents the absorbance at 415 nm of the sample or negative control, while P represents the absorbance at 415 nm of the positive control. The peptide solvent was used as the negative control, whereas 0.1% Triton X-100 served as the positive control."}, "[6]": {"test_system": "S. aureus cytoplasmic membrane", "assay_type": "cell-based, Staphylococcus aureus", "details": "S. aureus 10^6 CFU/mL in PBS, 0.25, 0.5 and 1 MIC, 1 h, 37 °C; flow cytometry; at least triplicate", "quoted_text": "A bacterial suspension of S. aureus was cultured in LB medium to the exponential phase (OD600 = 0.5). […] Following incubation, 42 µL of SYTOX™ Green Ready Flow™ Reagent (Invitrogen, Thermo Fisher Scientific, Carlsbad, CA, USA) was added to the peptide-treated cells and incubated for an additional 10 min at 25 °C. Fluorescence emission was measured using flow cytometry. The cell population was gated based on forward scatter and side scatter parameters. Cells with compromised membranes were identified by their fluorescence (excitation at 488 nm and detection at 530 nm with a 30 nm bandpass filter). The mean fluorescence intensity and the percentage of fluorescent cells were determined by analyzing 100,000 cells per sample. Each experiment was performed in at least triplicate. Flow cytometry measurements were conducted using a BD FACSCanto II system (BD Biosciences, Wokingham, UK)."}, "[7]": {"details": "25 µL from wells without visible growth spread on nutrient agar"}, "[8]": {"details": "96-well plate serial dilution, 10 µL inoculum of 2.2 × 10^6 CFU/mL, OD600"}},
  "note": "Ends that are not written are not given here.",
  "data": [
    {"molecule": "KIQKKIIKKIGRWW-NH2 [compound 6]", "values": [
      {"measurement": "K. pneumoniae MBC", "setting": "[1]; [7]", "result": 256, "unit": "µg/mL"},
      {"measurement": "K. pneumoniae MIC", "setting": "[1]; [8]", "result": 256, "unit": "µg/mL"},
      {"measurement": "P. aeruginosa MBC", "setting": "[2]; [7]", "result": 32, "unit": "µg/mL"},
      {"measurement": "P. aeruginosa MIC", "setting": "[2]; [8]", "result": 16, "unit": "µg/mL"},
      {"measurement": "S. aureus MBC", "setting": "[3]; [7]", "result": 64, "unit": "µg/mL"},
      {"measurement": "S. aureus MIC", "setting": "[3]; [8]", "result": 32, "unit": "µg/mL"},
      {"measurement": "E. coli MBC", "setting": "[4]; [7]", "result": 8, "unit": "µg/mL"},
      {"measurement": "E. coli MIC", "setting": "[4]; [8]", "result": 8, "unit": "µg/mL"},
      {"measurement": "Hemolytic activity", "setting": "[5]", "result": "2.35 ± 0.20", "unit": "%"}
    ]},
    {"molecule": "CC1(C)S[C@@H]2[C@H](NC(=O)[C@H](N)c3ccccc3)C(=O)N2[C@H]1C(=O)O", "note": "[Ampicillin, reference compound]", "values": [
      {"measurement": "MBC", "setting": "[1]; Klebsiella pneumoniae, ATCC27736, 25 µL from wells without visible growth spread on nutrient agar", "result": "> 256", "unit": "µg/mL"},
      {"measurement": "MIC", "setting": "[1]; Klebsiella pneumoniae, ATCC27736, 96-well plate serial dilution, 10 µL inoculum of 2.2 × 10^6 CFU/mL, OD600", "result": "> 256", "unit": "µg/mL"},
      {"measurement": "MBC", "setting": "[2]; Pseudomonas aeruginosa, ATCC27853, 25 µL from wells without visible growth spread on nutrient agar", "result": 256, "unit": "µg/mL"},
      {"measurement": "MIC", "setting": "[2]; Pseudomonas aeruginosa, ATCC27853, 96-well plate serial dilution, 10 µL inoculum of 2.2 × 10^6 CFU/mL, OD600", "result": 128, "unit": "µg/mL"},
      {"measurement": "MBC", "setting": "[3]; Staphylococcus aureus, ATCC25923, 25 µL from wells without visible growth spread on nutrient agar", "result": 8, "unit": "µg/mL"},
      {"measurement": "MIC", "setting": "[3]; Staphylococcus aureus, ATCC25923, 96-well plate serial dilution, 10 µL inoculum of 2.2 × 10^6 CFU/mL, OD600", "result": 8, "unit": "µg/mL"},
      {"measurement": "MBC", "setting": "[4]; Escherichia coli, ATCC25922, 25 µL from wells without visible growth spread on nutrient agar", "result": 32, "unit": "µg/mL"},
      {"measurement": "MIC", "setting": "[4]; Escherichia coli, ATCC25922, 96-well plate serial dilution, 10 µL inoculum of 2.2 × 10^6 CFU/mL, OD600", "result": 4, "unit": "µg/mL"}
    ]},
    {"molecule": "VHKLAKGIFKRWW-NH2 [compound 12]", "values": [
      {"measurement": "K. pneumoniae MBC", "setting": "[1]; [7]", "result": 256, "unit": "µg/mL"},
      {"measurement": "K. pneumoniae MIC", "setting": "[1]; [8]", "result": 256, "unit": "µg/mL"},
      {"measurement": "P. aeruginosa MBC", "setting": "[2]; [7]", "result": 64, "unit": "µg/mL"},
      {"measurement": "P. aeruginosa MIC", "setting": "[2]; [8]", "result": 32, "unit": "µg/mL"},
      {"measurement": "S. aureus MBC", "setting": "[3]; [7]", "result": 32, "unit": "µg/mL"},
      {"measurement": "S. aureus MIC", "setting": "[3]; [8]", "result": 32, "unit": "µg/mL"},
      {"measurement": "E. coli MBC", "setting": "[4]; [7]", "result": 16, "unit": "µg/mL"},
      {"measurement": "E. coli MIC", "setting": "[4]; [8]", "result": 4, "unit": "µg/mL"},
      {"measurement": "Hemolytic activity", "setting": "[5]", "result": "1.67 ± 0.17", "unit": "%"}
    ]},
    {"molecule": "NC[C@H]1O[C@H](O[C@H]2[C@H](O)[C@@H](O[C@H]3O[C@H](CO)[C@@H](O)[C@H](N)[C@H]3O)[C@H](N)C[C@@H]2N)[C@H](O)[C@@H](O)[C@@H]1O", "note": "[kanamycin]", "values": [
      {"measurement": "Cytoplasmic membrane permeabilization (SYTOX Green fluorescence intensity)", "setting": "[6]", "result": "low fluorescence intensity"}
    ]},
    {"molecule": "KKILGGMAKAVRWW-NH2 [compound 9]", "values": [
      {"measurement": "K. pneumoniae MBC", "setting": "[1]; [7]", "result": 128, "unit": "µg/mL"},
      {"measurement": "K. pneumoniae MIC", "setting": "[1]; [8]", "result": 128, "unit": "µg/mL"},
      {"measurement": "P. aeruginosa MBC", "setting": "[2]; [7]", "result": 128, "unit": "µg/mL"},
      {"measurement": "P. aeruginosa MIC", "setting": "[2]; [8]", "result": 64, "unit": "µg/mL"},
      {"measurement": "S. aureus MBC", "setting": "[3]; [7]", "result": 128, "unit": "µg/mL"},
      {"measurement": "S. aureus MIC", "setting": "[3]; [8]", "result": 64, "unit": "µg/mL"},
      {"measurement": "E. coli MBC", "setting": "[4]; [7]", "result": 32, "unit": "µg/mL"},
      {"measurement": "E. coli MIC", "setting": "[4]; [8]", "result": 8, "unit": "µg/mL"},
      {"measurement": "Hemolytic activity", "setting": "[5]", "result": "2.39 ± 0.22", "unit": "%"}
    ]},
    {"molecule": "GWINIIKIQKKRWW-NH2 [compound 3]", "values": [
      {"measurement": "E. coli MBC", "setting": "[4]; [7]", "result": 256, "unit": "µg/mL"},
      {"measurement": "E. coli MIC", "setting": "[4]; [8]", "result": 128, "unit": "µg/mL"},
      {"measurement": "Hemolytic activity", "setting": "[5]", "result": "7.74 ± 1.18", "unit": "%"}
    ]}
  ]
}
